Experimental data: ChEMBL document CHEMBL1152510, “Melanogenesis inhibitors from the rhizomes of Alpinia officinarum in B16 melanoma cells” (Bioorg Med Chem, 2009)
The source made the active and inactive calls. No cut-off for these calls is given here.

Columns and labels:
[1] = biological target: T1, Tyrosinase (Agaricus bisporus) (UniProt O42713); assay: Inhibition of mushroom tyrosinase at 1 uM
T1 sequence (whole entry): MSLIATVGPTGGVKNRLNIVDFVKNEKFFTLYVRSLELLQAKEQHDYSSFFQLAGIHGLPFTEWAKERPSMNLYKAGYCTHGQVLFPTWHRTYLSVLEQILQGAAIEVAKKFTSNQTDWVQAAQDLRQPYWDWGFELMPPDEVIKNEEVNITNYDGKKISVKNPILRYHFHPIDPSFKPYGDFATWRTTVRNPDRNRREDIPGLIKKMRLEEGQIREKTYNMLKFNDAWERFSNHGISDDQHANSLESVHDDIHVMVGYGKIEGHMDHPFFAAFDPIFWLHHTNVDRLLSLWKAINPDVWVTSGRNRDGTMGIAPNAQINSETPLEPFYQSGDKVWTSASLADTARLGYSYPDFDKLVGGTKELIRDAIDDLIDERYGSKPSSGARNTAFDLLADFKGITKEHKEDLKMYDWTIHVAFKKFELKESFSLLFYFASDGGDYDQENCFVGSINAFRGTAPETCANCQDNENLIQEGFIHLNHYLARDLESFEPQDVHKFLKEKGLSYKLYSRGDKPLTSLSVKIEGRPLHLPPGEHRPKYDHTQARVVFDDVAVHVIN

[2] = biological target: T1, Tyrosinase (Agaricus bisporus); assay: Inhibition of mushroom tyrosinase at 3 uM
[3] = biological target: T2, Tyrosinase (Agaricus bisporus, UniProt O42713)
T2 sequence (O42713 whole entry): T1 sequence (whole entry)

[4] = cells; settings: Mus musculus, B16-4A5, 72 h, read-out: INH
Description: Inhibition of melanogenesis in theophylline-stimulated mouse B16-4A5 cells at 1 uM after 72 hrs

[5] = cells; settings: Mus musculus, B16-4A5, 72 h, read-out: INH; remark: listed apart in the source
Description: Inhibition of melanogenesis in theophylline-stimulated mouse B16-4A5 cells at 3 uM after 72 hrs

[6] = cells; settings: Mus musculus, B16-4A5, 72 h, read-out: INH; remark: listed apart in the source
Description: Inhibition of melanogenesis in theophylline-stimulated mouse B16-4A5 cells at 10 uM after 72 hrs

[7] = cells; settings: Mus musculus, B16-4A5, 72 h, read-out: INH; remark: listed apart in the source
Description: Inhibition of melanogenesis in theophylline-stimulated mouse B16-4A5 cells at 30 uM after 72 hrs

[8] = tested on: B16; assay: cells; settings: Mus musculus, B16, 72 h
Description: Inhibition of melanogenesis in theophylline-stimulated mouse B16-4A5 cells after 72 hrs

[9] = cells; settings: Mus musculus, B16-4A5, 68 h, read-out: INH
Description: Inhibition of theophylline-stimulated mouse B16-4A5 cell proliferation assessed as cell viability at 1 uM after 68 hrs by WST8 assay

[10] = cells; settings: Mus musculus, B16-4A5, 68 h, read-out: INH; remark: listed apart in the source
Description: Inhibition of theophylline-stimulated mouse B16-4A5 cell proliferation assessed as cell viability at 3 uM after 68 hrs by WST8 assay

[11] = cells; settings: Mus musculus, B16-4A5, 68 h, read-out: INH; remark: listed apart in the source
Description: Inhibition of theophylline-stimulated mouse B16-4A5 cell proliferation assessed as cell viability at 10 uM after 68 hrs by WST8 assay

[12] = cells; settings: Mus musculus, B16-4A5, 68 h, read-out: INH; remark: listed apart in the source
Description: Inhibition of theophylline-stimulated mouse B16-4A5 cell proliferation assessed as cell viability at 30 uM after 68 hrs by WST8 assay

[13] = cells; settings: Mus musculus, B16-4A5, 68 h, read-out: INH; remark: listed apart in the source
Description: Inhibition of theophylline-stimulated mouse B16-4A5 cell proliferation assessed as cell viability at 100 uM after 68 hrs by WST8 assay

[14] = cells; settings: Mus musculus, B16-4A5, 68 h
Description: Inhibition of theophylline-stimulated mouse B16-4A5 cell proliferation assessed as cell viability after 68 hrs by WST8 assay

[15] = tested on: B16-4A5; assay: Inhibition of tyrosinase mRNA expression in theophylline-stimulated mouse B16-4A5 cells at 1 to 30 uM after 72 hrs; type: functional, cell-based
[16] = tested on: B16-4A5; assay: Inhibition of TRP1 mRNA expression in theophylline-stimulated mouse B16-4A5 cells at 1 to 30 uM after 72 hrs; type: functional, cell-based
[17] = tested on: B16-4A5; assay: Inhibition of TRP2 mRNA expression in theophylline-stimulated mouse B16-4A5 cells at 1 to 30 uM after 72 hrs; type: functional, cell-based
[18] = tested on: B16-4A5; assay: Inhibition of microphthalmia-associated transcriptional factor level in theophylline-stimulated mouse B16-4A5 cells at 1 to 30 uM after 24 hrs; type: functional, cell-based
[19] = tested on: B16-4A5; assay: Inhibition of microphthalmia-associated transcriptional factor level in theophylline-stimulated mouse B16-4A5 cells at 1 to 30 uM after 48 hrs; type: functional, cell-based
[20] = cells; settings: Mus musculus, B16-4A5, 72 h, read-out: INH; remark: listed apart in the source
Description: Inhibition of melanogenesis in theophylline-stimulated mouse B16-4A5 cells at 100 uM after 72 hrs

[21] = Inhibition of melanogenesis in theophylline-stimulated mouse B16-4A5 cells at 300 uM after 72 hrs; type: functional; settings: B16-4A5, 72 h
[22] = Inhibition of melanogenesis in theophylline-stimulated mouse B16-4A5 cells at 1000 uM after 72 hrs; type: functional; settings: B16-4A5, 72 h
[23] = Inhibition of theophylline-stimulated mouse B16-4A5 cell proliferation assessed as cell viability at 300 uM after 68 hrs by WST8 assay; type: functional; settings: B16-4A5, 68 h
[24] = Inhibition of theophylline-stimulated mouse B16-4A5 cell proliferation assessed as cell viability at 1000 uM after 68 hrs by WST8 assay; type: functional; settings: B16-4A5, 68 h

| inhibition [1] [%] | inhibition [2] [%] | IC50 [3] [µM] | IC50 [8] [µM] | IC50 [14] [µM] | Compound | inhibition at 1 µM [4] [%] | inhibition at 3 µM [5] [%] | inhibition at 10 µM [6] [%] | inhibition at 30 µM [7] [%] | inhibition at 1 µM [9] [%] | inhibition at 3 µM [10] [%] | inhibition at 10 µM [11] [%] | inhibition at 30 µM [12] [%] | inhibition at 100 µM [13] [%] | inhibition at 100 µM [20] [%] | other results |
| --- | --- | --- | --- | --- | --- | --- | --- | --- | --- | --- | --- | --- | --- | --- | --- | --- |
| 2.7 | 4.6 | > 100 | 33 | 60 | O[C@H](CCc1ccccc1)C[C@H](O)CCc1ccccc1 | 10.4 | 11.1 | 7.2 | 48.1 | 1.1 | -0.5 | 1.6 | -2.3 | 90.2 | – | – |
| -1.7 | -0.2 | > 100 | 16 | > 100 | COc1ccc(-c2oc3cc(O)cc(O)c3c(=O)c2O)cc1 [KAEMPFERIDE] | 0 | 5.9 | 39.9 | 81.2 | -2 | 3.1 | 7.9 | 7.4 | 11.2 | 78.4 | Activity [15]: Active; Activity [16]: Active; Activity [17]: Active; Activity [18]: inactive; Activity [19]: Active |
| 6 | 4.4 | > 100 | 84 | > 100 | O=C1c2c(O)cc(O)cc2O[C@H](c2ccc(O)cc2)[C@H]1O [DIHYDROKAEMPFEROL] | 8.7 | 1.2 | 12.7 | 20.5 | 0.2 | 5.9 | 13.8 | 23.9 | 30.5 | 56 | – |
| 3.8 | 5.3 | > 100 | > 100 | > 100 | O=C(O)CCc1ccccc1 [PHENYL PROPIONIC ACID] | 0.1 | 6.3 | 3.8 | 16.9 | -1.4 | -2.8 | 1.2 | 1.3 | 2.9 | 20.9 | – |
| 5.7 | 7.6 | > 100 | 20 | 88 | O=c1c(O)c(-c2ccc(O)cc2)oc2cc(O)cc(O)c12 [KAEMPFEROL] | 8.3 | 9.9 | 23.4 | 61.1 | 5.6 | 18.1 | 23.5 | 26.1 | 56 | – | – |
| – | – | – | 116 | > 1000 | OC[C@H]1O[C@@H](Oc2ccc(O)cc2)[C@H](O)[C@@H](O)[C@@H]1O [ARBUTIN] | – | – | 6.7 | 17.8 | – | – | 8.7 | 17.6 | 21.9 | 46.9 | inhibition at 300 µM [21]: 71%; inhibition at 1000 µM [22]: 88.7%; inhibition at 300 µM [23]: 20.2%; inhibition at 1000 µM [24]: 46.9% |
| 3.3 | 2.5 | > 100 | 48 | > 100 | O=C(CCc1ccccc1)C[C@H](O)CCc1ccccc1 | -3.3 | 6.8 | 10.6 | 33 | 0 | 0.7 | -4.7 | -7.6 | -7.6 | 67.8 | – |
| 2.3 | 4.7 | > 100 | 30 | > 100 | COc1cc(CC[C@@H](O)CC(=O)CCc2ccccc2)ccc1O | 7.5 | 8.9 | 23.4 | 49.2 | 5.3 | 11.7 | 11.8 | 15.1 | 20.8 | 81.1 | – |
| 1.8 | 2.8 | > 100 | > 100 | > 100 | O=C1c2c(O)cc(O)cc2O[C@H](c2ccccc2)[C@H]1O [PINOBAKSIN] | – | -5.8 | 10.8 | 16.9 | 2.2 | 3.6 | 7 | 7.1 | 6.9 | 47.7 | – |
| 3.2 | 3 | > 100 | 10 | 60 | COc1cc(CC/C=C/C(=O)CCc2ccccc2)ccc1O | 11.6 | 22.5 | 49.3 | 80.1 | 3.2 | 3.8 | 5.1 | 2.6 | 90.6 | – | Activity [15]: Active; Activity [16]: Active; Activity [17]: Active; Activity [18]: inactive; Activity [19]: Active |
| 1.4 | 2.1 | > 100 | > 100 | > 100 | COc1cc(CCC(C)=O)ccc1O [ZINGERONE] | 7.6 | 3.7 | 6.1 | 8.3 | -0.5 | -2.8 | -8 | -8.8 | -6.1 | 15.5 | – |
| 28 | 26.6 | > 100 | 17 | 100 | O=c1c(O)c(-c2ccccc2)oc2cc(O)cc(O)c12 [GALANGIN] | -0.5 | -5.3 | 43.4 | 87.1 | 1.7 | 7.1 | 11.4 | 12.7 | 53.3 | – | Activity [15]: Active; Activity [16]: Active; Activity [17]: Active; Activity [18]: inactive; Activity [19]: Active |
